Assay: Ex-vivo delivery of doxazosin mesylate from coated polyurethane tubing to ureter tissue
Assay type: in vitro ADME
Details: 7 cm coated 6 Fr. polyurethane tubing in 9 cm porcine ureter, approximately 18 hours at 37° C., PBS pH=7.4; HPLC; compared with coating with no triacetin or DMSO; FIG. 6
Experimental: However, the increase in the amount bioactive delivered through a vessel wall may be characterized in an ex vivo assay in which the composition or implantable device is placed in a section of the appropriate vessel and incubated in a buffer solution for a fixed time. In one such assay, a device, for example, is placed in a section of porcine ureter, which is hydrated in a Phosphate Buffered Saline buffer. The ureter is incubated in a closed container for a fixed time, for example 24 hrs at 37 deg. C. […] The amount of bioactive present in the ureter and in the device is determined using, for example, an appropriate HPLC method. […]
A 7 cm section of each of the samples of tubing prepared as described in Example 1 is inserted into 9 cm of porcine ureter and incubated for approximately 18 hours at 37° C. in a screw capped glass vial hydrated with 0.25 ml of PBS (pH=7.4). […] The amount of doxazosin mesylate present in the tubing and in the ureter is determined as described in example 3.
Each of the samples from Example 2 is tested to determine the amount of doxazosin mesylate delivered to the ureter tissue. Doxazosin mesylate is extracted from each tube and ureter and the percentage that is delivered to each ureter is determined as follows. […] The amount of doxazosin mesylate in each of the ureter and the tubing is measured using HPLC.

Row | SMILES | percentage of doxazosin mesylate present in the ureter (amount delivered to ureter tissue)
1 | C[S+](C)[O-] [DMSO, dimethyl sulfoxide] | increase the amount of doxazosin mesylate delivered
2 | CC(=O)OCC(COC(C)=O)OC(C)=O [triacetin] | increase the amount of doxazosin mesylate delivered

Reference: US20140172118A1, “Bioactive Compositions, Bioactive Eluting Devices and Methods of Use Thereof” (Cook Medical Technologies LLC, priority 2012, published 2014)
